From patent US20230114728A1 (Venatorx Pharmaceuticals, Inc., priority 2019, published 2023)
Converted amounts (≈) assume the structure as drawn. Like-named read-outs stand apart in the source and are kept apart here.

What was measured:
Type in all cases: cell-based
E. coli AG100A = assay: Broth microdilution MIC in CAMHB; conditions: Escherichia coli, read-out: Minimum Inhibitory Concentration, E. coli AG100A
In short: (§1)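 CLSI microdilution; CAMHB; inoculum 2-8×10^5 CFU/mL from 3-5 h 37° C culture; 2-fold compound series; 16-20 h, 37° C; MIC = lowest well without visible growth.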

E. coli D22 = assay: Broth microdilution MIC in CAMHB; conditions: Escherichia coli; E. coli D22 (hyper-permeable); MHB; read-out: Minimum Inhibitory Concentration, E. coli D22
In short: as §1

[1] = tested on: K. pneumoniae 848844 producing SHV-11 and KPC-2; assay: Broth microdilution MIC in CAMHB; conditions: Klebsiella pneumoniae, read-out: Minimum Inhibitory Concentration, K. pneumoniae 848844
In short: as §1

[2] = tested on: K. pneumoniae SI-117 producing VIM-1; assay: Broth microdilution MIC in CAMHB; conditions: Klebsiella pneumoniae, read-out: Minimum Inhibitory Concentration, K. pneumoniae SI-117
In short: as §1

[3] = tested on: P. aeruginosa (ΔmexAB-oprM); assay: Broth microdilution MIC in CAMHB; conditions: Pseudomonas aeruginosa, read-out: Minimum Inhibitory Concentration, P. aeruginosa ΔmexAB-OprM
In short: as §1

[4] = tested on: N. gonorrhoeae ATCC 49226; assay: Liquid broth MIC in Fastidious broth; conditions: Neisseria gonorrhoeae, ATCC49226, Fastidious broth
In short: (§2)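 Colonies were swabbed from chocolate agar after 24 h growth and standardised by optical density at 600 nm. Compounds were serially diluted twofold in Fastidious broth, and bacteria added to give 5×10^5 CFU/mL. After about 24 h at 36 °C in 5% CO2, the lowest concentration allowing under 10% growth was taken as MIC.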

N. gonorrhoeae FA1090 = assay: Liquid broth MIC in Fastidious broth; conditions: Neisseria gonorrhoeae, Fastidious broth
In short: as §2

N. gonorrhoeae H041 = assay: Liquid broth MIC in Fastidious broth; conditions: Neisseria gonorrhoeae
In short: as §2

N. gonorrhoeae WHO G = assay: Liquid broth MIC in Fastidious broth; conditions: Neisseria gonorrhoeae, Fastidious broth
In short: as §2

N. gonorrhoeae WHO K = assay: Liquid broth MIC in Fastidious broth; conditions: Neisseria gonorrhoeae
In short: as §2

N. gonorrhoeae WHO L = assay: Liquid broth MIC in Fastidious broth; conditions: Neisseria gonorrhoeae, Fastidious broth
In short: as §2

N. gonorrhoeae WHO Q = assay: Liquid broth MIC in Fastidious broth; conditions: Neisseria gonorrhoeae
In short: as §2

N. gonorrhoeae WHO Z = assay: Liquid broth MIC in Fastidious broth; conditions: Neisseria gonorrhoeae
In short: as §2

[5] = N. gonorrhoeae strain ATCC 49226, read-out: Minimum Inhibitory Concentration, N. gonorrhoeae ATCC 49226
[6] = N. gonorrhoeae strain FA1090, read-out: Minimum Inhibitory Concentration, N. gonorrhoeae FA1090
[7] = H041, read-out: Minimum Inhibitory Concentration, N. gonorrhoeae H041
[8] = N. gonorrhoeae strain WHO G, read-out: Minimum Inhibitory Concentration, N. gonorrhoeae WHO G
[9] = read-out: Minimum Inhibitory Concentration, N. gonorrhoeae WHO K
[10] = N. gonorrhoeae strain WHO L, read-out: Minimum Inhibitory Concentration, N. gonorrhoeae WHO L
[11] = read-out: Minimum Inhibitory Concentration, N. gonorrhoeae WHO Q
[12] = read-out: Minimum Inhibitory Concentration, N. gonorrhoeae WHO Z
[13] = N. gonorrhoeae ATCC 49226, read-out: Minimum Inhibitory Concentration, ATCC 49226
[14] = N. gonorrhoeae FA1090, read-out: Minimum Inhibitory Concentration, FA1090
[15] = H041, read-out: Minimum Inhibitory Concentration, H041
[16] = N. gonorrhoeae WHO G, read-out: Minimum Inhibitory Concentration, WHO G
[17] = read-out: Minimum Inhibitory Concentration, WHO K
[18] = N. gonorrhoeae WHO L, read-out: Minimum Inhibitory Concentration, WHO L
[19] = read-out: Minimum Inhibitory Concentration, WHO Q
[20] = read-out: Minimum Inhibitory Concentration, WHO Z

SMILES	MIC (E. coli AG100A) [µg/mL]	MIC (E. coli D22) [µg/mL]	MIC [1] [µg/mL]	MIC [2] [µg/mL]	MIC [3] [µg/mL]	MIC [4, 5] [µg/mL]	MIC (N. gonorrhoeae FA1090; [6]) [µg/mL]	MIC (N. gonorrhoeae H041; [7]) [µg/mL]	MIC (N. gonorrhoeae WHO G; [8]) [µg/mL]	MIC (N. gonorrhoeae WHO K; [9]) [µg/mL]	MIC (N. gonorrhoeae WHO L; [10]) [µg/mL]	MIC (N. gonorrhoeae WHO Q; [11]) [µg/mL]	MIC (N. gonorrhoeae WHO Z; [12]) [µg/mL]	MIC [4, 13] [µg/mL]	MIC (N. gonorrhoeae FA1090; [14]) [µg/mL]	MIC (N. gonorrhoeae H041; [15]) [µg/mL]	MIC (N. gonorrhoeae WHO G; [16]) [µg/mL]	MIC (N. gonorrhoeae WHO K; [17]) [µg/mL]	MIC (N. gonorrhoeae WHO L; [18]) [µg/mL]	MIC (N. gonorrhoeae WHO Q; [19]) [µg/mL]	further results
CCN1CCN(C(=O)N[C@@H](C(=O)N[C@H]2Cc3cccc(C(=O)O)c3OB2O)c2c(O)cc(O)cc2F)C(=O)C1=O (single isomer, unassigned) [Example 182]	0.5 to 1 (≈ 0.896 to 1.79 µM)	0.5 to 1 (≈ 0.896 to 1.79 µM)	32 to 64 (≈ 57.3 to 115 µM)	32 to 64 (≈ 57.3 to 115 µM)	8 to 16 (≈ 14.3 to 28.7 µM)	4 to 8 (≈ 7.16 to 14.3 µM)	< 0.125	> 64	1 to 2 (≈ 1.79 to 3.58 µM)	16 to 32 (≈ 28.7 to 57.3 µM)	16 to 32 (≈ 28.7 to 57.3 µM)	16 to 32 (≈ 28.7 to 57.3 µM)	16 to 32 (≈ 28.7 to 57.3 µM)	–	–	–	–	–	–	–	–
CCN1CCN(C(=O)NC(C(=O)N[C@H]2Cc3cccc(C(=O)O)c3OB2O)c2cc(C#N)c(OC)cc2F)C(=O)C1=O (stereo partly drawn) [Example 192, (3R)-3-(2-(5-cyano-2-fluoro-4-methoxyphenyl)-2-(4-ethyl-2,3-dioxopiperazine-1-carboxamido)acetamido)-2-hydroxy-3,4-dihydro-2H-benzo[e][1,2]oxaborinine-8-carboxylic acid]	32 to 64 (≈ 55 to 110 µM)	32 to 64 (≈ 55 to 110 µM)	> 128	> 128	32 to 64 (≈ 55 to 110 µM)	> 64	4 to 8 (≈ 6.88 to 13.8 µM)	> 64	> 64	> 64	> 64	> 64	> 64	–	–	–	–	–	–	–	–
NCCN1CCN(C(=O)N[C@@H](C(=O)N[C@H]2Cc3cccc(C(=O)O)c3OB2O)c2c(F)cccc2Cl)C(=O)C1=O (single isomer, unassigned) [Example 205]	8 to 16 (≈ 13.9 to 27.8 µM)	32 to 64 (≈ 55.6 to 111 µM)	> 128	> 128	32 to 64 (≈ 55.6 to 111 µM)	–	–	–	–	–	–	–	–	> 64	16 to 32 (≈ 27.8 to 55.6 µM)	> 64	> 64	> 64	> 64	> 64	MIC (N. gonorrhoeae WHO Z; [20]): > 64 µg/mL
NCCN1CCN(C(=O)N[C@@H](C(=O)N[C@H]2Cc3cccc(C(=O)O)c3OB2O)c2ccc(O)c([N+](=O)[O-])c2)C(=O)C1=O (single isomer, unassigned) [Example 199]	2 to 4 (≈ 3.42 to 6.85 µM)	8 to 16 (≈ 13.7 to 27.4 µM)	> 128	> 128	8 to 16 (≈ 13.7 to 27.4 µM)	16 to 32 (≈ 27.4 to 54.8 µM)	1 to 2 (≈ 1.71 to 3.42 µM)	> 64	16 to 32 (≈ 27.4 to 54.8 µM)	> 64	> 64	> 64	> 64	–	–	–	–	–	–	–	–
NCCCN1CCN(C(=O)N[C@@H](C(=O)N[C@H]2Cc3cccc(C(=O)O)c3OB2O)c2c(O)cc(O)cc2F)C(=O)C1=O (single isomer, unassigned) [Example 195]	2 to 4 (≈ 3.41 to 6.81 µM)	2 to 4 (≈ 3.41 to 6.81 µM)	32 to 64 (≈ 54.5 to 109 µM)	32 to 64 (≈ 54.5 to 109 µM)	8 to 16 (≈ 13.6 to 27.2 µM)	16 to 32 (≈ 27.2 to 54.5 µM)	1 to 2 (≈ 1.7 to 3.41 µM)	> 64	4 to 8 (≈ 6.81 to 13.6 µM)	> 64	> 64	> 64	> 64	–	–	–	–	–	–	–	–
CCN1CCN(C(=O)N[C@H](C(=O)N[C@H]2Cc3cccc(C(=O)O)c3OB2O)c2ccc(C(=O)O)c(F)c2Cl)C(=O)C1=O (single isomer, unassigned) [Example 202]	32 to 64 (≈ 52.9 to 106 µM)	8 to 16 (≈ 13.2 to 26.5 µM)	> 128	> 128	> 128	–	–	–	–	–	–	–	–	16 to 32 (≈ 26.5 to 52.9 µM)	4 to 8 (≈ 6.61 to 13.2 µM)	> 64	16 to 32 (≈ 26.5 to 52.9 µM)	> 64	> 64	> 64	MIC (N. gonorrhoeae WHO Z; [20]): 16 to 32 µg/mL (≈ 26.5 to 52.9 µM)
